# Reference: US5984868A, “Device for measuring an absorbed dose of gas by skin and method therefor” (Institute of Occupational Safety and Health, Council of …, priority 1998, dated 1999)
# Where “and” joins values, the source holds several entries; their conditions need not be identical. Equal entries are not always repeated.
# Experiments:
# [1] = Absorbed dose of vapor by skin of an arm in feedback-controlled exposure chamber, six voluntary subjects (Embodiment 1, 300±10 ppm); assay type: in vivo, human; settings: human, topical or ocular, 300±10 ppm vapor; mean of six subjects; read-out: permeability constant, mean (converted)
# Method: (§1) The injection rate of the injection system was checked with a five-digit balance (Mettler model AT-201, Switzerland). 2-methoxy ethanol was continuously injected into a glass bottle, and six continuous injections were measured to obtain the average value and the coefficient of variation. Each continuous injection had 10 injection does. An average injection dose was obtained from the […] injection doses. The average dose of each ejection was then used as a computation base for checking the injection dose of the system. After each human experiment, the above weight calibration was used again to check the average injection dose of each ejection so as to obtain the relative percentage error of the average injection doses before and after the experiment. The flash evaporation chamber is a small glass chamber which is embraced by a heating strap and a temperature control device, as shown in FIG. 1. The flash evaporation chamber was used to accelerate the evaporation of the liquid 2-methoxy ethanol and to shorten the reaction time of the system. When the evaporation of the liquid was slower than the skin absorption rate, it will cause the injection system to continuously inject the 2-methoxy ethanol, and thus result in an excess absorption dose of the vapor by the skin of the human under test. The flash evaporation chamber of the present invention can avoid this problem by providing with the heating strap.
# (§2) The measurement of the absorbed dose of vapor by skin was carried out respectively with each of six voluntary subjects whose personal data are shown in the following Table 3:
# (§3) The method of the first embodiment is illustrated in FIG. 1 in which the arm of a subject is shown being put into an exposure chamber. The exposure chamber contains 2-methoxy ethanol having a concentration of 300±10 ppm, with the relative humidity and the temperature of the exposure chamber being respectively 80±2%, and 25±1° C. For details of the control of the first embodiment, please refer to the Preparatory Embodiments described above.
# (§4) According, m5 can be justifiably ignored.
# skin [2] = assay: as above; assay type: in vivo, human
# Method: as §1, §2, §3, §4
# [3] = 2-methoxy ethanol dose in the subject's exhalation; assay type: in vivo; settings: human, exhaled air, topical or ocular; of the total absorbed dose; read-out: 2-methoxy ethanol doses in the subject's exhalation, share of total absorbed dose
# From the text: as §4
# [4] = Johanson et al, 1988; cited from earlier work
# [5] = general statement, no test shown; cited from earlier work
# skin [6] = assay: Absorbed dose of vapor by skin in exposure chamber (Embodiment 2, 25±1.5 ppm); settings: 25±1.5 ppm vapor
# From the text: The test concentration of the hazardous gas is 25 ppm in compliance with the allowable limit set forth by OSHA. In light of the lack of an exposure chamber large enough to accommodate a human body in its entirety, a small exposure chamber was used to investigate the absorption of the hazardous gas by the skin of an arm. On the basis of the result of the hand, the absorption of the hazardous gas by the skin of the whole body was estimated. […] The hand and the arm of a worker are often exposed on the job and are therefore used as subjects of the investigation. It is also assumed that the gas absorption rate of the skin of a hand is about equal to the average value of the gas absorption rate of the skin of the whole body. […] As a result, an absorbed dose of 300 ppm by a hand is about corresponding to an absorbed dose of 15 ppm by a whole body (300 ppm*1,250 cm^2 /18,000 cm^2 * 0.75). […] The digital signals were then transmitted to a computer (Pentium 100). When the concentration signal of the hazardous gas contained in the exposure chamber received by the computer was lower than the lower limit of 23.5 ppm, an instruction was generated by the software program and transmitted to activate the automatic injection system to raise quickly the concentration up to the upper limit of 26.5 ppm. […] Throughout the experiment of the present invention, a series of injected doses of the hazardous gas were obtained. The sum of the injected doses was used to compute the absorbed dose of the hazardous gas by the skin.
# The rotation speeds of the two fans were adjusted to obtain desired wind velocities and flow streams by using an adjustable resistor. […] When the hand was extended into the exposure chamber, the contact portions of the hand and the exposure chamber were covered with two layers of aluminum foil in conjunction with a transparent plastic bag therebetween. In addition, the upper arm was banded with the 3M bandage to avert the gas leak. Located respectively in the front, the middle and the rear of the exposure chamber was a detector for monitoring the uniformity of the gas concentration distribution and the change in the gas concentration throughout the experiment.
# It must be noted here that m1 is equal to the post-calibration injection rate multiplied by the accumulated injection times. […] This implies that only m1 and m2 must be measured with precision.
# [7] = 300±10 ppm vapor, 80±2% RH, 25±1° C., arm, individual subjects 1-6
# [8] = 300±10 ppm vapor, mean of six subjects
smiles,measurement,setting,value
COCCO [2-methoxy ethanol],Papp,[1],3890 ×10⁻⁶ cm/s
same,m1 (accumulated doses added to stabilize the concentration in the exposure chamber),skin [2]; [7],430.00 mg and 296.88 mg and 172.46 mg and 285.11 mg and 350.67 mg and 394.56 mg
same,m2 (doses captured by the condensation dehumidifier),skin [2]; [7],328.50 mg and 222.75 mg and 137.75 mg and 210.00 mg and 301.00 mg and 304.75 mg
same,m3 (gas residual left on the exposed arm after termination of exposure),skin [2]; [7],0.35 mg and 0.58 mg and 0.66 mg and 0.63 mg and 0.16 mg
same,permeability constant,skin [2]; [7],5575 ×10⁻⁶ cm/s and 4600 ×10⁻⁶ cm/s and 1650 ×10⁻⁶ cm/s and 4508 ×10⁻⁶ cm/s and 2540 ×10⁻⁶ cm/s and 4469 ×10⁻⁶ cm/s
same,skin absorption rate,skin [2]; [7],18.72 μg/cm^2 /h and 15.45 μg/cm^2 /h and 5.55 μg/cm^2 /h and 15.14 μg/cm^2 /h and 8.52 μg/cm^2 /h and 15.01 μg/cm^2 /h
same,"Δm (absorbed dose by skin, m1-m2-m3-m4)",skin [2]; [7],96.11 mg and 68.51 mg and 29.01 mg and 69.44 mg and 44.04 mg and 84.61 mg
same,"skin absorption rate, mean",skin [2]; [8],13.07 μg/cm^2 /h
same,"Δm (absorbed dose by skin), mean",skin [2]; [8],65.29 mg
same,"m3 and m4, respectively, relative to the dose of m1",skin [2]; of the dose of m1,less than 1%
same,dose excreted,[3],< 0.4%
same,distribution coefficient of the human blood relative to air,[4],"32,836"
same,water solubility,[5],excellent
same,m1 (accumulated doses added to the exposure chamber),skin [6],34.5 mg
same,m2 (doses captured by the condensation dehumidifier),skin [6],27.1 mg
same,m3 (gas residual left on the exposed arm),skin [6],0.04 mg
same,m5 (doses contained in the subject's exhalations),skin [6],trace
